Columns and labels:
[1] = Plasma pharmacokinetics of telaglenastat; assay type: in vivo, human
[2] = test system: renal cell carcinoma (RCC); assay: Antitumor activity by RECIST v1.1, RCC cohorts; assay type: in vivo, human
glutamine = assay: Plasma glutamine concentration; assay type: in vivo, human; settings: cycle 1, day 15 relative to predose on cycle 1, day 1; P = 0.0073; n = 6
tumor cell lines = settings: preclinical, several tumor cell lines; cited from earlier work
[3] = test system: advanced and/or treatment-refractory solid tumors; assay: Antitumor activity by RECIST v1.1, all solid tumors; assay type: in vivo, human
[4] = All RCC (n = 28), number (percent) of efficacy evaluable patients
[5] = All dose expansion (N = 58), number (percent) of efficacy evaluable patients

O=C(Cc1cccc(OC(F)(F)F)c1)Nc1ccc(CCCCc2nnc(NC(=O)Cc3ccccn3)s2)nn1 [telaglenastat, Telaglenastat]
Cmin ([1]; RCC patient with PR (800 mg BID)): 1,490 ng/mL | half-life ([1]; human, in vivo, 600 mg): 3.73 h | AUC ([1]; human, in vivo, 800 mg): 19900 ng·h/mL | AUC(0-t) ([1]; human, in vivo, 800 mg, AUC0–8h, steady state C1D15, 800 mg BID-fed (n = 10), mean (CV%)): 9660 ng·h/mL | Cmax ([1]; human, in vivo, 800 mg, C max, steady state C1D15, 800 mg BID-fed (n = 10), mean (CV%)): 1770 ng/mL | concentration at 15 day of cycle 1 ([1]; human, in vivo, 800 mg, C min, steady state C1D15, 800 mg BID-fed (n = 10), median (range)): 443 ng/mL | Cmax ([1]; human, in vivo, 800 mg, Cmax, RCC patient with PR (800 mg BID)): 2960 ng/mL | Tmax ([1]; human, in vivo, 800 mg, t max, steady state C1D15, 800 mg BID-fed (n = 10), (range)): 4 h | C min ([1]; steady state C1D15, 1,000 mg BID-fed (n = 4), median (range)): 147 (73.2–221) ng/mL | Disease control rate (DCR) ([2]; 28 evaluable patients with RCC in both dose escalation and dose expansion, 14/28): 50% | Best overall response: Partial response [2, 4]: 1 (3.6) | Best overall response: Progressive disease [2, 4]: 14 (50.0) | Best overall response: Stable disease [2, 4]: 13 (46.4) | reduction in target lesions ([2]; clear cell RCC patient with PR (800 mg BID)): 32% | patients with RCC remaining on study for more than 10 months ([2]; in vivo): Four | time on study ([2]; one clear cell patient with RCC): > 2.4 years | overall response rate ([2]; renal cell carcinoma): 5% | increase in plasma glutamine (glutamine): approximately 150% | antiproliferative activity (tumor cell lines): cytostatic and cytotoxic antiproliferative activity | Best overall response: Partial response [3, 5]: 1 (1.7) | Best overall response: Progressive disease [3, 5]: 33 (56.9) | Best overall response: Stable disease [3, 5]: 24 (41.4) | objective responses ([3]; BID or TID dose escalation cohorts): No objective responses | patients with time on study ≥6 months ([3]; SDs across different tumor types): 12 patients | patients with PR ([3]; dose expansion (in an RCC patient)): 1/58 | patients with SD ([3]; dose expansion, 24/58): 41.4% | patients with PD ([3]; dose expansion, 33/58): 56.9%
